Results from patent US11098041B2 (Merck Patent GmbH, priority 2014, dated 2021).

Tests used:
[1] = molecular target: BTK C481S (His-TEV-hsBTK(328-659)(C481S)) (Homo sapiens (Human), UniProt Q06187, C481S); assay: Assay B: microfluidic off-chip mobility shift assay against BTK C481S enzyme; type: biochemical; conditions: BTK C481S mutant
Experimental: The mechanics of the assay platform are described by the vendor (PerkinElmer, Hopkinton, Mass.) on their website at the following URL: http://caliperls.com.
5 uL of enzyme buffer and 7.5 uL of ATP/KinKDR peptide substrate mix were added to Matrix (#4315) 384-well, sterile, flat-bottom polypropylene plates (Thermo Fisher Scientific, Hudson, N.H.) with 125 nL of serially diluted compounds prepared in 100% DMSO, and incubated for 90 min. at 25° C. Following the incubation period, reactions were terminated by adding 65 uL quench buffer consisting of 100 mM HEPES, pH 7.5, 0.015% Brij-35 (30%), 0.277% Coating Reagent #3 (PerkinElmer, Mountain View, Calif.), 5% DMSO. Terminated reactions were monitored at −2 PSI, −3000 V/−700 Volts in a LabChip 3000 plate reader from Caliper Life Sciences, a PerkinElmer Company (Hopkinton, Mass.), and the activity was quantified by laser-induced fluorescence measuring the charge/mass difference between substrate and product resulting from peptide phosphorylation. IC50 and efficacy were determined by plotting log [Inhibitor] vs. % Activity in GeneData Screener (Basel, Switzerland).

[2] = molecular target: full-length human BTK (Homo sapiens (Human), UniProt Q06187); assay: Assay A: microfluidic off-chip mobility shift assay against BTK enzyme; type: biochemical
Experimental: Assay A: Microfluidic Off-Chip Mobility Shift Assay Protocol for Potency Assessment Against BTK Enzyme
The protocol below describes microfluidic, off-chip mobility shift kinase assay to measure inherent potency of compounds against BTK enzyme.
5 uL of enzyme buffer and 7.5 uL of ATP/kinKDR peptide substrate mix were added to Matrix (#115304) 384-well, sterile, polypropylene plates (Thermo Fisher Scientific, Hudson, N.H.) with 125 nL of serially diluted compounds prepared in 100% DMSO, and incubated for 90 min. at 27° C. Following the incubation period, reactions were stopped by adding 60 uL stop buffer consisting of 100 mM HEPES, pH 7.5, 0.015% Brij-35 (30%), 0.277% Coating Reagent #3 (Caliper Life Sciences, Mountain View, Calif.), 5% DMSO. Stopped reactions were monitored at −2 PSI, −3000 V/−700 V in a LabChip 3000 plate reader from Caliper Life Sciences, a PerkinElmer Company (Hopkinton, Mass.), and the activity was measured by off-chip mobility shift assay measuring the charge/mass difference between substrate and product resulting from peptide phosphorilation. IC50 and efficacy were determined by plotting log [Inhibitor] vs. % Activity in GeneData Screener (Basel. Switzerland).

Sequence of full-length human BTK (Q06187 whole entry): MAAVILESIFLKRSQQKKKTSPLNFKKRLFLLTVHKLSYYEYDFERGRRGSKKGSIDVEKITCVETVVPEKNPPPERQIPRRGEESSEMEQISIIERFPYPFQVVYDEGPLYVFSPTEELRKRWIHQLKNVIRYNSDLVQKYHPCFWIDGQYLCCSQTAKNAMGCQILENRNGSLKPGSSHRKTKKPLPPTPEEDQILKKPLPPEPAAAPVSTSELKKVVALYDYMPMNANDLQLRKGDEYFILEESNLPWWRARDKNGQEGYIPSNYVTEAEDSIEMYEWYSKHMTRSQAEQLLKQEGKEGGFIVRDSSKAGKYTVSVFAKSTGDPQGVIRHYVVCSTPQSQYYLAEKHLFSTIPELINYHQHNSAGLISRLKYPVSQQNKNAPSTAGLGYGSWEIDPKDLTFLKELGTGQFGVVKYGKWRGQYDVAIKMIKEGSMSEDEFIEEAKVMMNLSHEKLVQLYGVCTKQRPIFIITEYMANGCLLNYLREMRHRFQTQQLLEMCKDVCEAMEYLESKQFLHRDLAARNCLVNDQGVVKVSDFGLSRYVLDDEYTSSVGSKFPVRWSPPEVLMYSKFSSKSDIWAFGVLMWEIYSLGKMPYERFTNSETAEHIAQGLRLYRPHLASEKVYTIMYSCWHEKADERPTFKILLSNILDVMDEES
Sequence of BTK C481S (His-TEV-hsBTK(328-659)(C481S)) (Q06187 328-659 C481S): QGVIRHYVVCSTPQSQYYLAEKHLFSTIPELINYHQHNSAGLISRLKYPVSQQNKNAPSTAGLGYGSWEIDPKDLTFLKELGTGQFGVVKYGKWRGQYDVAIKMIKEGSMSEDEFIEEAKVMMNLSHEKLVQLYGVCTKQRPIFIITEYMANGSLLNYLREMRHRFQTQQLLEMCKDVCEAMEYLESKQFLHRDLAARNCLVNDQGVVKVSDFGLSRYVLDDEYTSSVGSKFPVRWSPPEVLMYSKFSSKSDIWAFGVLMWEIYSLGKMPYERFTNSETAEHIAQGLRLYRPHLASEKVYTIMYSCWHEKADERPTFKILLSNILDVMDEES

Row | Compound | IC50 [1] [nM] | IC50 [2] [nM]
1 | CC(C)(C)c1ccc(C(=O)Nc2cccc(-c3ccnc4[nH]c(-c5ccc(C(=O)N6CCOCC6)cc5)nc34)c2CO)cc1 [Example 46, 4-tert-Butyl-N-[2-(hydroxymethyl)-3-(2-[4-[(morpholin-4-yl)carbonyl]phenyl]-3H-imidazo[4,5-b]pyridin-7-yl)phenyl]benzamide] | 1000 to 5000 | 1000 to 5000
2 | Cn1cc(-c2nc3c(-c4ccc(Cn5ncc6cc(C(C)(C)C)cc(F)c6c5=O)c(F)c4)ccnc3[nH]2)cn1 [Example 99, 6-tert-Butyl-8-fluoro-2-{2-fluoro-4-[2-(1-methyl-1H-pyrazol-4-yl)-3H-imidazo[4,5-b]pyridin-7-yl]-benzyl}-2H-phthalazin-1-one] | < 100 | < 100
3 | Cc1c(CNC(=O)c2noc(C(C)(C)C)n2)cccc1-c1ccnc2[nH]c(-c3cnn(C)c3)nc12 [Example 88, 5-tert-Butyl-N-([2-methyl-3-[2-(1-methyl-1H-pyrazol-4-yl)-3H-imidazo[4,5-b]pyridin-7-yl]phenyl]methyl)-1,2,4-oxadiazole-3-carboxamide] | > 5000 | 1000 to 5000
4 | Cn1cc(-c2nc3c(-c4ccc(CNC(=O)CCC(C)(C)C)c(F)c4)ccnc3[nH]2)cn1 [Example 21, 4,4-Dimethyl-pentanoic acid 2-fluoro-4-[2-(1-methyl-1H-pyrazol-4-yl)-3H-imidazo[4,5-b]pyridin-7-yl]-benzylamide] | < 100 | < 100
5 | C[C@@H]1CN(c2ccc(-c3nc4c(-c5cccc(NC(=O)c6noc(C(C)(C)C)n6)c5CO)ccnc4[nH]3)cc2)C[C@H](C)O1 [Example 47, 5-tert-Butyl-N-[3-(2-[4-[(2R,6S)-2,6-dimethylmorpholin-4-yl]phenyl]-3H-imidazo[4,5-b]pyridin-7-yl)-2-(hydroxymethyl)phenyl]-1,2,4-oxadiazole-3-carboxamide] | < 100 | 100 to 1000
6 | CC(C)(C)c1noc(C(=O)NCc2ccc(-c3ccnc4[nH]c(-c5cccnc5)nc34)cc2F)n1 [Example 149, 3-(tert-butyl)-N-(2-fluoro-4-(2-(pyridin-3-yl)-3H-imidazo[4,5-b]pyridin-7-yl)benzyl)-1,2,4-oxadiazole-5-carboxamide] | < 100 | < 100
7 | CC(C)(C)c1nc(C(=O)Nc2cccc(-c3ccnc4[nH]c(-c5ccc(N6CCC(F)(F)CC6)cc5)nc34)c2CO)no1 [Example 48, 5-tert-Butyl-N-(3-[2-[4-(4,4-difluoropiperidin-1-yl)phenyl]-3H-imidazo[4,5-b]pyridin-7-yl]-2-(hydroxymethyl)phenyl)-1,2,4-oxadiazole-3-carboxamide] | < 100 | 100 to 1000
8 | Cn1cc(-c2nc3c(-c4ccc(CNC(=O)C5CC(OC(C)(C)C)C5)c(F)c4)ccnc3[nH]2)cn1 (stereo not shown) [Example 60, 3-(tert-Butoxy)-N-([2-fluoro-4-[2-(1-methyl-1H-pyrazol-4-yl)-3H-imidazo[4,5-b]pyridin-7-yl]phenyl]methyl)cyclobutane-1-carboxamide] | 100 to 1000 | 100 to 1000
9 | CC(C)(C)c1nc(C(=O)NCc2ccc(-c3ccnc4[nH]c(C5CCNC(=O)C5)nc34)cc2F)no1 (stereo not shown) [Example 30, 5-tert-Butyl-[1,2,4]oxadiazole-3-carboxylic acid 2-fluoro-4-[2-(2-oxo-piperidin-4-yl)-3H-imidazo[4,5-b]pyridin-7-yl]-benzylamide] | 100 to 1000 | 1000 to 5000
10 | COc1ncccc1-c1nc2c(-c3ccc(CNC(=O)c4nc(C(C)(C)C)no4)c(F)c3)ccnc2[nH]1 [Example 151, 3-(tert-butyl)-N-(2-fluoro-4-(2-(2-methoxypyridin-3-yl)-3H-imidazo[4,5-b]pyridin-7-yl)benzyl)-1,2,4-oxadiazole-5-carboxamide] | < 100 | < 100
11 | CC(C)(C)c1noc(C(=O)NCc2ccc(-c3ccnc4[nH]c(C5CCNC(=O)C5)nc34)cc2F)n1 (stereo not shown) [Example 31, 3-tert-Butyl-[1,2,4]oxadiazole-5-carboxylic acid 2-fluoro-4-[2-(2-oxo-piperidin-4-yl)-3H-imidazo[4,5-b]pyridin-7-yl]-benzylamide] | 100 to 1000 | 1000 to 5000
12 | Cn1cc(-c2nc3c(-c4ccc(CN5CCOc6cc(C7CC7)cc(F)c6C5=O)cc4CO)ccnc3[nH]2)cn1 [Example 38, 8-Cyclopropyl-6-fluoro-4-[[3-(hydroxymethyl)0-4-[2-(1-methyl-1H-pyrazol-4-yl)-3H-imidazo[4,5-b]pyridin-7-yl]phenyl]methyl]-2,3,4,5-tetrahydro-1,4-benzoxazepin-5-one] | 100 to 1000 | 100 to 1000
13 | Cn1cc(-c2nc3c(-c4cnc(CNC(=O)c5nnc(C(C)(C)C)o5)c(F)c4)ccnc3[nH]2)cn1 [Example 13, 5-tert-Butyl-[1,3,4]oxadiazole-2-carboxylic acid {3-fluoro-5-[2-(1-methyl-1H-pyrazol-4-yl)-3H-imidazo[4,5-b]pyridin-7-yl]-pyridin-2-ylmethyl}-amide] | < 100 | 100 to 1000
14 | CCn1cc(C(=O)NCc2ccc(-c3ccnc4[nH]c(-c5cnn(C)c5)nc34)cc2F)cn1 [Example 20, 1-Ethyl-1H-pyrazole-4-carboxylic acid 2-fluoro-4-[2-(1-methyl-1H-pyrazol-4-yl)-3H-imidazo[4,5-b]pyridin-7-yl]-benzylamide] | < 100 | < 100
15 | Cn1cc(-c2nc3c(-c4ccc(CNC(=O)c5cnc(C6CC6)o5)c(F)c4)ccnc3[nH]2)cn1 [Example 18] | < 100 | < 100
16 | 5-tert-Butyl-[1,3,4]oxadiazole-2-carboxylic acid 2-fluoro-4-{2-[1-(2-morpholin-4-yl-ethyl)-1H-pyrazol-4-yl]-3H-imidazo[4,5-b]pyridin-7-yl}-benzylamide [Example 120] | < 100 | < 100
17 | CC(C)(C)c1nc(C(=O)Nc2cccc(-c3ccnc4[nH]c(-c5ccc(C(=O)N6CCOCC6)cc5)nc34)c2CO)no1 [Example 45, 5-tert-Butyl-N-[2-(hydroxymethyl)-3-(2-[4-[(morpholin-4-yl)carbonyl]phenyl]-3H-imidazo[4,5-b]pyridin-7-yl)phenyl]-1,2,4-oxadiazole-3-carboxamide] | < 100 | < 100
18 | Cn1ccc(-c2nc3c(-c4ccc(CNC(=O)c5nnc(C(C)(C)C)o5)c(F)c4)ccnc3[nH]2)cc1=O [Example 141, 5-tert-Butyl-[1,3,4]oxadiazole-2-carboxylic acid 2-fluoro-4-[2-(1-methyl-2-oxo-1,2-dihydro-pyridin-4-yl)-3H-imidazo[4,5-b]pyridin-7-yl]-benzylamide] | < 100 | < 100
19 | Cn1cc(-c2nc3c(-c4ccc(CNC(=O)c5csc(C(F)(F)F)n5)c(F)c4)ccnc3[nH]2)cn1 [Example 22, 2-Trifluoromethyl-thiazole-4-carboxylic acid 2-fluoro-4-[2-(1-methyl-1H-pyrazol-4-yl)-3H-imidazo[4,5-b]pyridin-7-yl]-benzylamide] | 100 to 1000 | 100 to 1000
20 | CC(C)(C)c1nnc(C(=O)NCc2ccc(-c3ccnc4[nH]c(-c5cnn(C6CCOCC6)c5)nc34)cc2F)o1 [Example 126, 5-tert-Butyl-[1,3,4]oxadiazole-2-carboxylic acid 2-fluoro-4-{2-[1-(tetrahydro-pyran-4-yl)-1H-pyrazol-4-yl]-3H-imidazo[4,5-b]pyridin-7-yl}-benzylamide] | < 100 | < 100
21 | Cn1cc(-c2nc3c(-c4cccc(NC(=O)c5noc(C(C)(C)C)n5)c4CO)ccnc3[nH]2)cn1 [Example 43, 5-tert-Butyl-N-[2-(hydroxymethyl)-3-[2-(1-methyl-1H-pyrazol-4-yl)-3H-imidazo[4,5-b]pyridin-7-yl]phenyl]-1,2,4-oxadiazole-3-carboxamide] | 100 to 1000 | 100 to 1000
22 | Cn1cc(-c2nc3c(-c4cccc(NC(=O)c5noc(C6CC6)n5)c4CO)ccnc3[nH]2)cn1 [Example 44, 5-Cyclopropyl-N-[2-(hydroxymethyl)-3-[2-(1-methyl-1H-pyrazol-4-yl)-3H-imidazo[4,5-b]pyridin-7-yl]phenyl]-1,2,4-oxadiazole-3-carboxamide] | < 100 | 1000 to 5000
23 | CC(C)(C)c1noc(C(=O)NCc2ccc(-c3ccnc4[nH]c(-c5ccncc5)nc34)cc2F)n1 [Example 150, 3-(tert-butyl)-N-(2-fluoro-4-(2-(pyridin-4-yl)-3H-imidazo[4,5-b]pyridin-7-yl)benzyl)-1,2,4-oxadiazole-5-carboxamide] | < 100 | < 100
